Consider three molecules from patent US20100029761A1, “NOVEL COMPOUNDS, PHARMACEUTICAL COMPOSITIONS CONTAINING SAME, AND METHODS OF USE FOR SAME” (priority 2005, published 2010).

Test [1] has as its system β-Oxidation of (1-14C) palmitic acid in cells. Kind of test: β-Oxidation assay, isolation of acid soluble products. Type of test: cell-based. Also noted: unit not given here. As for the experimental part: A 24 well plate with 1 ml per well was prepared with 2.5×10^5 cells /well. The cells were incubated O/N. The next day, a solubilized palmitate solution was prepared. 50 μls of (1−^14C) Palmitic acid was added to a 2 ml centrifuge tube and dried under nitrogen gas. 2 mls of α-CD (α-Cyclodextran)—10 mg/ml in 10 mM Tris were added. This solution was incubated in a 37° C. water bath for 30 minutes. A hot mix was prepared by adding 25 μl of this solution to 2.5 μls of 200 μM Carnitine and 222.5 μl of serum free medium that is used for cells. The cells were then treated with the test compound in triplicate, and incubated. at 37° C. for 60 minutes. The medium was removed and 250 μl of the hot mix were added. The test compound was added again, and further incubated at 37° C. for 60 minutes. The reaction was stopped with 50 μl of 2.6 N HClO4. The contents of the plate were transferred to a 1.5 ml centrifuge tube, and 50 μl of 4N KOH were then added, and the tube incubated in a 60° C. water bath for 30 min. Sodium acetate (1 M, 75 μl) and sulfuric acid (3N, 50 μl) were added to the solution and vortexed. The tube was spun for 7 minutes at 1000 rpm at room temperature. A portion (225 μl) was removed, and the following were added (vortex after each addition, twice at the end): 938 μl of 1:1 Chloroform: Methanol; 468 μl of Chloroform; 281 μl distilled Water. The tubes were spun at 1000 rpm for 5 minutes. The upper phase was removed into a large glass scintillation vial and 5 ml of Budget solvent (scintillation liquid) was added. The tubes were well vortexed. Finally, ^14C was counted for one minute.

Test [2] has as its target rat liver acyl-CoA synthetase. The note with it: read-out: 50% inhibition of rat liver acyl-CoA synthetase; cited from earlier work.
Test [3] relates to Raji cells. The note with it: cited from earlier work.
Test [4] deals with viral HIV protease (Human immunodeficiency virus type 1 group M subtype B, UniProt P04585). The note with it: cited from earlier work.
The subject of test [5] is Mycobacterium tuberculosis. The note with it: in vitro; cited from earlier work.

Where “and” joins values, the source holds several entries; their conditions need not be identical. Equal values may be shown once.

Take `CCCCCCCCC1OC(=O)C(O)=C1C(=O)OCC` (stereo not shown) [Compound 1]: the Beta oxidation in test [1] (0.04 ug/ml) is 94 and 103 and 120; in test [1] (0.19 ug/ml) it was 108 and 104 and 113; in test [1] (3.13 ug/ml) it was 113 and 109 and 107; in test [1] (12.5 ug/ml), 114 and 107 and 100; in test [1] (50 ug/ml) it was 54 and 49 and 45; in test [1] (.78 ug/ml) it was 104 and 106.

On to `CCCC=CCC=CC=CC=NN=NO` [Triacsin C, 1-hydroxy-3-(E, E, E-2′,4′,7′-undecatrienylidine) triazene], for which, in test [2], the IC50 was 8.7 µM. Further, the “concentration causing growth inhibition in Raji cells” value in test [3] was 1.0 µM.

Regarding `C/C=C/C/C=C/CCC(=O)[C@H]1O[C@H]1C(N)=O` [cerulenin, (2s, 3R)-2,3-epoxy-4-oxo-7,10 dodecadienoyl amide], in test [4], the “concentration for inhibition of viral HIV protease” value is 5 mg/mL. In addition, in test [5], the “activity against Mycobacterium tuberculosis” value was “no activity”.
